The numbers were not newly measured in PubChem BioAssay AID977608, which cites them from elsewhere.

Usually IC50 stands for the midpoint of a concentration-inhibition curve.

This series deals with Cruzipain (Trypanosoma cruzi) (UniProt P25779). The series is described as follows: protein-ligand inhibition affinities from structures – PDB-derived complexes (AID 977608). Particulars: literature IC50, protein: cruzain, chain 3I06_A, PDB entry 3I06.

As to `CCn1cnc2c(Nc3cc(F)cc(F)c3)nc(C=N)nc21`, the IC50 is 0.2 nM.
